Consider 1 substance from US11045519B2, “Arginine-rich polypeptide compositions and methods of using same” (UNM Rainforest Innovations, priority 2017, dated 2021).

A value given as a limit tells only on which side of the number the result lay.

Experiment [1] concerns HPV16 PsVs. The experiment can be described thus: Post-attachment and time-course HPV16 PsV infection of HaCaT cells. The experiment is classed as cell-based. The protocol: FIG. 6. PolyR inhibits HPV16 PsV infection at pre-attachment and post-attachment stages. (A) Infection of HaCaT cells with HPV16. Semi-confluent HaCaT cells were left untreated with polyR (H16) or exposed to HPV16 PsV 1 h before (polyR/H16) or one hour after […] (H16/PolyR) treatment, were subjected to infectivity measurements after a 24-hour incubation at 37° C. (as described in FIG. 1). (B) Time-course experiments of HPV infection in the absence or presence of polyR. Untreated control cells were infected with HPV16 PsV (HPV16). HaCaT cells were treated with 1 μM polyR before (+1 h polyR/HPV16), concurrently (0 h polyR/HPV16) or at one hour, two hours, four hours, six hours, or eight hours post-attachment of HPV16 PsVs. Infection was scored at 24 hours post HPV attachment and shift to 37° C.
FIG. 18. PrS post-attachment effect on HPV infection. HaCaT cell were incubated with 500 vge/cell HPV PsVs at RT for one hour before addition of 1.5 μM PrS complexed with 0.1% HMW HA or with 3 μM LMW HA. Infection scored 24 after infection as described in FIG. 12.
FIG. 20. Time-course experiments of HPV infection in the presence of PrS or HA:PrS complex. (A) PrS; (B) HA:PrS complex. HaCaT cells were treated with 2 μM PrS or 2 μM PrS associated with 0.1% HMW HA at indicated times post-attachment of HPV16 PsVs, and infection was scored 24 hours after infection as described in FIG. 12. Time-point zero represents initial PsV inoculation.
The data above show clearly that polyR can inhibit HPV binding to cells and infection, but that polyR cannot displace HPV after bound to cells. To determine whether polyR can alter HPV infectivity if it is present after HPV is bound to cells, the infection levels of virus-exposed cells that are either pre-treated with polyR before virus binding, polyR-treated after HPV binding, or untreated with polyR were compared. […] This indicates a second mechanism whereby polyR can block HPV infection after virus is bound to cells.
Next, the effectiveness of polyR treatment in blocking infection when added at increasing times post HPV binding to cells was tested. This time-course experiment confirmed that polyR affects post-attachment stages of virus infection. HaCaT cells were treated with polyR one hour prior to virus exposure, concurrently with virus exposure, and at increasing times after virus was bound and unbound virus was removed. Infection efficiency was measured after a 24-hour incubation at 37° C. The cells infected with HPV16 PsV in the absence of polyR (FIG. 6B, HPV16) was considered as 100% infection efficiency.
To investigate PrS post-attachment effect on infection, HaCaT cell were exposed with HPV PsVs at room temperature for one hour before addition of PrS complexed with heavy molecular weight (HMW) HA or with low molecular weight (LMW) HA.
Time-course experiments in which HaCaT cells were exposed to PrS or PrS:HA complex at various times after attachment with HPV16 PsVs confirmation this mechanism.

For experiment [2], the system named is HPV16 PsVs. The experiment in a line: HPV16 PsV infection of CHO mutant cells. The experiment is classed as cell-based. To be noted: 3 μM, 1 h pre-treatment, 24 h. The protocol:
FIG. 7. HPV binding and infection of CHO mutant cells in the presence of polyR. CHO mutant pgsA-745 cells (GAG deficient) and CHO mutant pgsD-677 cells (HS deficient) were grown in Ham's F12 medium supplemented with 10% fetal bovine serum and 1% Glutamax (Invitrogen, Thermo Fisher Scientific, Inc., Carlsbad, Calif.). (A) Cells were incubated with 3 μM polyR in the medium for 30 minutes before adding HPV16 PsVs and incubating at 4° C. for one hour. After extensive washing with PBS, cells were lysed and analyzed for the content of L1, as described in FIG. 4A. (B) Semi-confluent CHO-pgsA were treated with 3 μM polyR for one hour prior to adding HPV16 PsVs. Infection was scored at 24 hours post infection as described in FIG. 1. (C) Semi-confluent CHO-pgsD cells were treated with 3 μM polyR for one hour prior to adding HPV16 PsVs. Infection was scored at 24 hours post infection as described in FIG. 1.
To test the effects of polyR on cells that differentially express heparan sulfate versus heparan sulfonated proteoglycans, like glycosaminoglycans (GAGs), genetically mutant clones of Chinese hamster ovary (CHO) cell lines were used. […] First, the effect of polyR on HPV16 PsV binding to these mutant cells was measured.

poly-L-arginine [polyR]: the “inhibition of HPV16 infection” value is given as greater than 95% with HPV16 PsVs [1] (1 μM, added 1 h before virus exposure); “Strong infection inhibition” with HPV16 PsVs [1] (1 μM, added 1 h to 2 h post HPV binding); “Only mild inhibition” in the experiment with HPV16 PsVs [1] (1 μM, added 6 h to 8 h post infection); “same magnitude of infection inhibition” with HPV16 PsVs [1] (1 μM, added simultaneously with HPV (0 h)). Further, the “reduction in HPV infection” value with HPV16 PsVs [1] (1 μM, added 4 h post infection) is listed as “approximately 75%”. In addition, the “inhibition of infection when added after virus binding versus before” value in the experiment on HPV16 PsVs [1] (2 μM, 1 h after versus 1 h before HPV16 PsV, 24 h) is given as “as effective at inhibiting HPV infection when added after virus was bound to cells as it was when added prior to virus exposure”. Further, the figures for the “reduction of HPV16 infection” value in the experiment with HPV16 PsVs [2] (CHO pgsA-745 cells) and in the experiment on HPV16 PsVs [2] (CHO pgsD-677 cells) were 63% and 92%, respectively.
